{
  "source": "ChEMBL document CHEMBL3351330",
  "about": "“Design, synthesis, and in vitro evaluation of an activity-based protein profiling (ABPP) probe targeting agmatine deiminases” (Bioorg Med Chem, 2014)",
  "key": {"[1]": {"molecular_target": "T1, Putative agmatine deiminase (Streptococcus mutans serotype c (strain ATCC 700610 / UA159), UniProt Q8DW17)", "T1 sequence (Q8DW17 whole entry)": "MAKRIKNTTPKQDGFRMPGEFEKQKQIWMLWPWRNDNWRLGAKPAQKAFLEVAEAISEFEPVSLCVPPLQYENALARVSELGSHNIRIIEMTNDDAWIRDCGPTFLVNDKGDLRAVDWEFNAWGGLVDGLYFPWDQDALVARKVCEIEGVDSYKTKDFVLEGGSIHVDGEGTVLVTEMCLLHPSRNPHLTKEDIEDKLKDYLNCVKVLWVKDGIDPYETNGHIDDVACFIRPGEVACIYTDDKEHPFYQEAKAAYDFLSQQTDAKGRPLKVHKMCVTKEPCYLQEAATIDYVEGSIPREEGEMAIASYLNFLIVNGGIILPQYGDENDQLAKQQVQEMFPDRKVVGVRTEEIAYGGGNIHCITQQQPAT", "experiment": "Inhibition of Streptococcus mutans agmatine deiminase expressed in Escherichia coli pre-incubated for 15 mins before agmatine substrate addition"}, "[2]": {"molecular_target": "T2, Putative agmatine deiminase (Streptococcus mutans serotype c (strain ATCC 700610 / UA159)) (UniProt Q8DW17)", "T2 sequence (whole entry)": "T1 sequence (Q8DW17 whole entry)", "experiment": "Binding affinity to Streptococcus mutans agmatine deiminase in presence of Escherichia coli cell lysates assessed as enzyme photo labeling at 10 uM after 45 mins by coomassie blue staining based gel electrophoresis method"}, "[3]": {"molecular_target": "T2, Putative agmatine deiminase (Streptococcus mutans serotype c (strain ATCC 700610 / UA159))", "experiment": "Binding affinity to Streptococcus mutans agmatine deiminase expressed in Escherichia coli assessed as enzyme photo labeling at 2 to 10 uM after 45 mins by coomassie blue staining based SDS-PAGE method"}, "[4]": {"molecular_target": "T2, Putative agmatine deiminase (Streptococcus mutans serotype c (strain ATCC 700610 / UA159))", "experiment": "Binding affinity to Streptococcus mutans agmatine deiminase expressed in Escherichia coli assessed as enzyme photo labeling at 10 uM after 45 mins by coomassie blue staining based gel electrophoresis method"}, "[5]": {"molecular_target": "T2, Putative agmatine deiminase (Streptococcus mutans serotype c (strain ATCC 700610 / UA159))", "experiment": "Binding affinity to Streptococcus mutans agmatine deiminase in presence of Escherichia coli cell lysates assessed as enzyme level detected by compound at 10 uM after 45 mins by coomassie blue staining based gel electrophoresis method"}, "[6]": {"molecular_target": "T2, Putative agmatine deiminase (Streptococcus mutans serotype c (strain ATCC 700610 / UA159))", "experiment": "Binding affinity to Streptococcus mutans agmatine deiminase expressed in Escherichia coli assessed as enzyme photo labeling at 10 uM pre-treated with 10 uM ABCA for 45 mins by coomassie blue staining based gel electrophoresis method"}, "[7]": {"molecular_target": "T2, Putative agmatine deiminase (Streptococcus mutans serotype c (strain ATCC 700610 / UA159))", "experiment": "Binding affinity to Streptococcus mutans agmatine deiminase expressed in Escherichia coli assessed as enzyme photo labeling at 2 to 10 uM by coomassie blue staining based gel electrophoresis method"}, "[8]": {"molecular_target": "T2, Putative agmatine deiminase (Streptococcus mutans serotype c (strain ATCC 700610 / UA159))", "experiment": "Binding affinity to Streptococcus mutans agmatine deiminase expressed in Escherichia coli assessed as enzyme level detected by compound at 10 uM after 45 mins by coomassie blue staining based gel electrophoresis method"}},
  "note": "Active and inactive are the calls of the source. No cut-off for these calls is given here.",
  "data": [
    {"smiles": "N=C(CCl)NCCCCN", "values": [
      {"measurement": "IC50", "setting": "[1]", "value": 0.26, "unit": "µM"}
    ]},
    {"smiles": "N=C(CCl)NCCCCNCCCCCNC(=S)Nc1ccc(-c2c3ccc(=O)cc-3oc3cc(O)ccc23)c(C(=O)O)c1", "values": [
      {"measurement": "Activity", "setting": "[2]", "value": "Active"},
      {"measurement": "Activity", "setting": "[3]", "value": "Active"},
      {"measurement": "Activity", "setting": "[4]", "value": "Active"},
      {"measurement": "Activity", "setting": "[5]", "value": 0.5, "unit": "pmol"},
      {"measurement": "Activity", "setting": "[6]", "value": "inactive"},
      {"measurement": "Activity", "setting": "[7]", "value": "Active"},
      {"measurement": "Activity", "setting": "[8]", "value": 1, "unit": "pmol"},
      {"measurement": "IC50", "setting": "[1]", "value": 10.6, "unit": "µM"}
    ]}
  ]
}
